Laboratory results: the supplement of paper PMC11061612

Columns and labels:
[1] = tested on: CAL-39 (Other Solid Carcinomas); test: Bliss excess, mean over the matrix (fraction); higher = more synergy
Outline: (§1)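 Cell lines grown in DMEM/F12 or RPMI with 10% FBS were plated in 1536-well plates and held 24 hours at 37°C, 5% CO2 before 72 hours of exposure to two-drug dose matrices, with DMSO typically at 0.2%. CellTiter-Glo 2.0 luminescence gave viability, which was converted to inhibition. Vehicle wells were set to 0 and blank wells to 1. Combination Emax is the second-highest inhibition in the matrix, and Bliss excess is the observed combination effect minus the expected EA + EB − EA·EB, where EA and EB are the single-agent effects.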

H4 (Low Grade Glioma) [2] = test: as above
Outline: as §1

[3] = tested on: HCT-116 (Colorectal Carcinoma); test: as above
Outline: as §1

[4] = tested on: MEG-01 (Chronic Myelogenous Leukemia); test: as above
Outline: as §1

MSTO-211H (Mesothelioma) [5] = test: as above
Outline: as §1

[6] = tested on: SW48 (Colorectal Carcinoma); test: as above
Outline: as §1

CS1 (Chondrosarcoma) = test: combination Emax (second highest fraction inhibited in the dose matrix, 72 h); higher = more inhibition; extreme values may be limits of the assay
Outline: as §1

[7] = tested on: D-283MED (Other Solid Carcinomas); test: as above
Outline: as §1

EW-22 (Ewing's Sarcoma) = test: as above
Outline: as §1

H4 (Low Grade Glioma) [8] = test: as above
Outline: as §1

HCC38 (Breast Carcinoma) = test: as above
Outline: as §1

[9] = tested on: MEG-01 (Chronic Myelogenous Leukemia); test: as above
Outline: as §1

MSTO-211H (Mesothelioma) [10] = test: as above
Outline: as §1

[11] = tested on: P31-FUJ (Acute Myeloid Leukemia); test: as above
Outline: as §1

SK-MEL-1 (Melanoma) = test: as above
Outline: as §1

[12] = tested on: SK-UT-1 (Other Solid Carcinomas); test: as above
Outline: as §1

[13] = tested on: SNG-M (Endometrial Carcinoma); test: as above
Outline: as §1

[14] = tested on: SW48 (Colorectal Carcinoma); test: as above
Outline: as §1

[15] = tested on: SW948 (Colorectal Carcinoma); test: as above
Outline: as §1

[16] = tested on: WSU-DLCL2 (B-Cell Non-Hodgkin's Lymphoma); test: as above
Outline: as §1
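Wherever Bliss excess, mean over the matrix is given: after 72 h of two-drug dosing.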

SMILES	Bliss excess [1]	Bliss excess (H4 (Low Grade Glioma) [2])	Bliss excess [3]	Bliss excess [4]	Bliss excess (MSTO-211H (Mesothelioma) [5])	Bliss excess [6]	combination Emax (CS1 (Chondrosarcoma))	combination Emax [7]	combination Emax (EW-22 (Ewing's Sarcoma))	combination Emax (H4 (Low Grade Glioma) [8])	combination Emax (HCC38 (Breast Carcinoma))	combination Emax [9]	combination Emax (MSTO-211H (Mesothelioma) [10])	combination Emax [11]	combination Emax (SK-MEL-1 (Melanoma))	combination Emax [12]	combination Emax [13]	combination Emax [14]	combination Emax [15]	combination Emax [16]
Cc1c2c(nn1C)CSCc1cc(n(C)n1)CSc1cc(c3ccccc3c1)OCCCc1c(C(=O)O)n(C)c3c-2c(Cl)ccc13 [AZD5991] + CS(=O)(=O)CCNCc1ccc(-c2ccc3ncnc(Nc4ccc(OCc5cccc(F)c5)c(Cl)c4)c3c2)o1 [Lapatinib] (first compound max 1 µM, 7x7, partner max 10 µM)	0.0372	0.0407	-0.0365	-0.0318	0.0121	0.0213	0.506	0.986	0.41	0.484	0.366	0.557	0.193	0.985	0.37	0.485	0.177	0.649	0.26	1
CN(CCO)CC[C@H](CSc1ccccc1)Nc1ccc(S(=O)(=O)NC(=O)c2ccc(N3CCC([C@@H](O)c4ccccc4-c4ccc(Cl)cc4)CC3)cc2)cc1S(=O)(=O)C(F)(F)F [AZD4320] + CC(=O)O[C@H]1C(=O)[C@@]2(C)[C@H]([C@H](OC(=O)c3ccccc3)[C@]3(O)C[C@H](OC(=O)[C@H](O)[C@@H](NC(=O)c4ccccc4)c4ccccc4)C(C)=C1C3(C)C)[C@]1(OC(C)=O)CO[C@@H]1C[C@@H]2O [Paclitaxel] (first compound max 1 µM, 7x7, partner max 3 µM)	0.0298	-0.0229	0.0182	-0.0006	0.105	-0.003	0.961	1	0.999	1	0.77	0.991	0.881	1	0.623	0.977	1	1	0.942	1
C=CCn1c(=O)c2cnc(Nc3ccc(N4CCN(C)CC4)cc3)nc2n1-c1cccc(C(C)(C)O)n1 [AZD1775] + CCc1c2c(nc3ccc(O)cc13)-c1cc3c(c(=O)n1C2)COC(=O)[C@]3(O)CC [SN-38] (first compound max 1 µM, partner max 0.3 µM)	-0.0225	0.015	-0.0302	-0.0251	-0.0619	-0.0052	0.786	0.996	0.94	0.908	0.751	0.964	0.783	0.985	0.56	0.982	0.77	0.857	0.862	1
Cc1c2c(nn1C)CSCc1cc(n(C)n1)CSc1cc(c3ccccc3c1)OCCCc1c(C(=O)O)n(C)c3c-2c(Cl)ccc13 [AZD5991] + Nc1ccn([C@@H]2O[C@H](CO)[C@@H](O)C2(F)F)c(=O)n1 [Gemcitabine] (first compound max 1 µM, 7x7, partner max 0.3 µM)	0.0269	-0.0393	-0.0854	-0.0412	-0.0131	-0.0377	0.445	0.986	0.933	0.949	0.711	0.745	0.861	0.992	0.441	0.904	0.882	0.822	0.334	1
N#Cc1cnc(Nc2cc(NC[C@H]3CNCCO3)c(C(F)(F)F)cn2)cn1 [SRA737] + CCc1c2c(nc3ccc(O)cc13)-c1cc3c(c(=O)n1C2)COC(=O)[C@]3(O)CC [SN-38] (first compound max 10 µM, 7x7, partner max 0.3 µM)	-0.0157	-0.0029	-0.0306	0.0468	-0.024	-0.0411	0.786	0.994	0.932	0.832	0.682	0.946	0.705	0.984	0.486	0.943	0.786	0.854	0.834	1
N#Cc1cnc(Nc2cc(NC[C@H]3CNCCO3)c(C(F)(F)F)cn2)cn1 [SRA737] + C=CCn1c(=O)c2cnc(Nc3ccc(N4CCN(C)CC4)cc3)nc2n1-c1cccc(C(C)(C)O)n1 [AZD1775] (first compound max 10 µM, partner max 1 µM)	-0.0255	0.0327	0.0011	-0.0314	0.131	0.0468	0.596	1	0.873	0.792	0.576	0.935	0.726	0.973	0.277	0.843	0.883	0.764	0.807	1
N#Cc1cnc(Nc2cc(NC[C@H]3CNCCO3)c(C(F)(F)F)cn2)cn1 [SRA737] + O=c1[nH]cc(F)c(=O)[nH]1 [5-Fluorouracil] (first compound max 10 µM, 7x7, partner max 20 µM)	0.0175	-0.0189	0.0445	-0.0518	0.0301	-0.0588	0.405		0.736	0.619	0.507	0.835	0.536	0.98	0.157	0.799	0.71	0.592	0.45	
